Results on one compound are retold here after article PMC4844176 (Xenobiotica; the fate of foreign compounds in biological …, 2015).

“And” between values parts separate entries of the source, which are not always exact repeats. Equal values may be shown once. Read-outs that look alike come from different tables or passages of the source.

The subject of one data set is other UGTs. In words: Inhibition by aprepitant of other UGTs. Type of data set: in vitro ADME, human. Conditions: 1 µM aprepitant, UGTs other than UGT2B7.
In the next data set the target is T1, UGT1A8 (Homo sapiens, UniProt Q9HAW9).
T1 sequence (Q9HAW9 26-530): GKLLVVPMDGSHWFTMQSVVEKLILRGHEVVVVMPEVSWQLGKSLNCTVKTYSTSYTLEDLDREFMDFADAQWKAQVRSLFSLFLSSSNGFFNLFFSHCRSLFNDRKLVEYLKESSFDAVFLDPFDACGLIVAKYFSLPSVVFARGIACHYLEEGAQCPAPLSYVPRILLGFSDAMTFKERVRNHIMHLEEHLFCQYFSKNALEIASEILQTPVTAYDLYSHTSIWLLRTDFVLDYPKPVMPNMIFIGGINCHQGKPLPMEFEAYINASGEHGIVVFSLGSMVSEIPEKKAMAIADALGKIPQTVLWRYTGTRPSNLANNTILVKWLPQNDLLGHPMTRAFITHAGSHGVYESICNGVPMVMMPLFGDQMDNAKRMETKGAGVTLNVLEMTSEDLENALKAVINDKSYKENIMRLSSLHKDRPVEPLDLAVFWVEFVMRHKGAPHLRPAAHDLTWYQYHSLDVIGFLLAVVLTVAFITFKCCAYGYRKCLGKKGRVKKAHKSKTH

The target of another data set is T2, UGT1A4 (Homo sapiens, UniProt P22310).
T2 sequence (P22310 29-534): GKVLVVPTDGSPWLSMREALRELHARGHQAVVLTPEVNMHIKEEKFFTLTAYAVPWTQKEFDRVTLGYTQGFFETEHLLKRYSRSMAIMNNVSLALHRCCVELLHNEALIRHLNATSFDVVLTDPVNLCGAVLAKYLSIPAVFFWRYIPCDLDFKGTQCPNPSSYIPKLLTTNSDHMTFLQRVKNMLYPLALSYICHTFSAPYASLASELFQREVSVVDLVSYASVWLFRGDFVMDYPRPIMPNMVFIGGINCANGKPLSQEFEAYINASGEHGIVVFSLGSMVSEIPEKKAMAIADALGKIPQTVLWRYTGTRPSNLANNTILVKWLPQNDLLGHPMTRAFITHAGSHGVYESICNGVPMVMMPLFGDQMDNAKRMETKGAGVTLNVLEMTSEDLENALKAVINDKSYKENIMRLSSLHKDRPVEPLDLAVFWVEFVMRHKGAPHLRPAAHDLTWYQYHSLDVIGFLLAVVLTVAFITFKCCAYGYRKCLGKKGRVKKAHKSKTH
Conditions: pH 7.5; for velocity of AP-G formation: 60 min.

For data set [1], the target named is T3, UGT2B7 (Homo sapiens, UniProt P16662).
T3 sequence (P16662 24-529): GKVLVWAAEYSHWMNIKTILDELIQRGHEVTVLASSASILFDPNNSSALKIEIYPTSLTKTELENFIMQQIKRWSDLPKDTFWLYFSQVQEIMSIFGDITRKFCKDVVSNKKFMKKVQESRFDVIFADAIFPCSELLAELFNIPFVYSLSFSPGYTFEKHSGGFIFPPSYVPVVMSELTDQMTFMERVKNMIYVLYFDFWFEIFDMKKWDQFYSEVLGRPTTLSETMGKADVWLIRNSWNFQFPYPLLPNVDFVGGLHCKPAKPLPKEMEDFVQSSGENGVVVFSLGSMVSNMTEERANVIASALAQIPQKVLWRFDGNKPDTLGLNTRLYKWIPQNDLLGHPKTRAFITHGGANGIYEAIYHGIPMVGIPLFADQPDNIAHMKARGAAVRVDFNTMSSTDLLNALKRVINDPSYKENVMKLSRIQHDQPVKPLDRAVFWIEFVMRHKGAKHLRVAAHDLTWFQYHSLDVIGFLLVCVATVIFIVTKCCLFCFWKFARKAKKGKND
The experiment in a line: biochemical.

In data set [2] the target is T3, UGT2B7. In words: Ki determination of aprepitant on 4-MU-G, M-6-G and AZT-G formation in UGT2B7.
Data set [3] deals with human liver microsomes (HLM). Type of data set: in vitro ADME. To be noted: microsomes from 44 livers, 30 µM aprepitant.
The next data set deals with T4, UGT1A7 (Homo sapiens, UniProt Q9HAW7).
T4 sequence (Q9HAW7 26-530): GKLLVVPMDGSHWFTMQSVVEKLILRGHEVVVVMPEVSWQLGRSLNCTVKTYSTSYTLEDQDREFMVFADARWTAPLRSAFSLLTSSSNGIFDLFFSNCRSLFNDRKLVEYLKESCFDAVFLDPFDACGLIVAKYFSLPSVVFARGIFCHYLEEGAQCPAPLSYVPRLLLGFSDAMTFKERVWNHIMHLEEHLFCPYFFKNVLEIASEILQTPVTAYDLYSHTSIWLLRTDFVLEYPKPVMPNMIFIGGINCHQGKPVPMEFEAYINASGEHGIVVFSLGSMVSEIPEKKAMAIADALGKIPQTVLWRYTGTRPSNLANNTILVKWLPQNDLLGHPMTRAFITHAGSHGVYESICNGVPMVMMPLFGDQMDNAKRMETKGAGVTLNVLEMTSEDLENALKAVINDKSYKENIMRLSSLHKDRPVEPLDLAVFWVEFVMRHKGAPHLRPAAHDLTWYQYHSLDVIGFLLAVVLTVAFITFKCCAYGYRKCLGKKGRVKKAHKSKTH
In words: Screening for aprepitant glucuronidation, UGT1A7 Supersomes. Type of data set: in vitro ADME. To be noted: UGT1A7, 5 and 250 µM aprepitant.

In the case of `C[C@@H](O[C@H]1OCCN(Cc2n[nH]c(=O)[nH]2)[C@H]1c1ccc(F)cc1)c1cc(C(F)(F)F)cc(C(F)(F)F)c1` [aprepitant, Aprepitant], the “inhibition of other UGTs” value in the data set with other UGTs is under 10%. The Vmax on UGT1A8 (UGT1A8, mean ± SE) worked out at 683 ± 69 fmol/min/mg protein. Moreover, the “n (Hill coefficient)” value on UGT1A8 (UGT1A8, mean ± SE) is 1.2 ± 0.1. The “velocity of AP-G formation” value on UGT1A8 (human, 60 min, 250 µM, pH 7.5) is recorded as 391 ± 10.6 fmol/min/mg protein; at UGT1A4 (5 µM) it was 124.6 ± 6.4 fmol/min/mg protein; on UGT1A4 (250 µM), 2,710 ± 157.2 fmol/min/mg protein. The CLint at UGT1A8 (human, recombinant enzyme, pH 7.5) is reported as 3.5 µl/min/µg protein; at UGT1A4 (recombinant enzyme) it was 28 µl/min/µg protein. The Ki (as a rule, the dissociation constant of the complex between target and ligand, obtained from inhibition or displacement) at UGT2B7 [1] was ~10 µM and 7.4 µM and 16.3 µM and 6.7 µM. The inhibition model result at UGT2B7 [2] (UGT2B7, substrate 4-MU) is “competitive inhibition model”; at UGT2B7 [2] (UGT2B7, substrate AZT), “competitive inhibition model”; against UGT2B7 [2] (UGT2B7, substrate morphine), “noncompetitive model”. In addition, in data set [3], the “variation of glucuronidation activity between livers” value was “approximately 2 fold”. The AP-G formation result at UGT1A7 is on record as “not detected”.
